Test results as given in patent publication US20240300886A1, “ARYLCYCLOHEXYLAMINE DERIVATIVES AND THEIR USE IN THE TREATMENT OF PSYCHIATRIC DISORDERS” (GILGAMESH PHARMACEUTICALS, INC., priority 2021, published 2024).
Read-outs that look alike come from different tables or passages of the source.

Experiments:
[1] = Stability in liver microsomes (Example 21), beagle dog; format: in vitro ADME; conditions: male, pH 7.4, 0.5 mg/mL protein
Protocol: (§1) General Procedure. Briefly, test compounds (final concentration 1 μM) were incubated in duplicate with liver microsomes from male animals of the indicated species (final protein concentration 0.5 mg/mL) in 50 mM sodium phosphate buffer (pH 7.4) with or without NADPH (1 mM). Total incubation volume was 500 μL. At 0, 5, 15, 30, and 60 min, aliquots of 50 μL were withdrawn, quenched with acetonitrile (150 μL), and analyzed for parent compound remaining using a fit-for-purpose LC-MS/MS method. Intrinsic clearance and half-life were calculated. Clearance values below zero were rounded to zero.

[2] = target: serotonin transporter (SERT) (Homo sapiens (Human), UniProt P31645); experiment: SERT competition radioligand binding ([3H]imipramine); conditions: Human recombinant (CHO cells), 2.0 nM [3H]imipramine
Protocol: Disclosed compounds were tested for their binding affinity at the serotonin transporter (SERT) using a competition radioligand binding assay (Eurofins Cerep). Assay conditions are described in Table 16 below.

[3] = Stability in liver microsomes (Example 21), SD rat; format: in vitro ADME; conditions: male, pH 7.4, 0.5 mg/mL protein
Protocol: as §1

[4] = Stability in liver microsomes (Example 21), CD-1 mouse; format: in vitro ADME; conditions: male, pH 7.4, CD-1 Mouse liver microsomes, 0.5 mg/mL protein
Protocol: as §1

[5] = Stability in liver microsomes (Example 21), Gottingen minipig; format: in vitro ADME; conditions: male, pH 7.4, 0.5 mg/mL protein
Protocol: as §1

[6] = Stability in liver microsomes (Example 21), cynomolgus monkey; format: in vitro ADME; conditions: male, pH 7.4, 0.5 mg/mL protein
Protocol: as §1

[7] = Comparative oral pharmacokinetics of 2R, 2S and 2-F-DCK in mice; format: in vivo, C57BL/6 mice; conditions: 10 mg/kg po; for half-life: read-out: t1/2 (po)
Protocol: Animals. Male C57BL/6 mice were used in these studies. Aminals were randomly assigned to treatment groups and were fasted for 4 h before dosing.
Drugs. Test compounds were dissolved in a vehicle consisting of normal saline, They were then administered orally (po) at a dose of 10 mg/kg (calculated based on freebase) and at a volume of 10 mL/kg body weight.
Sample Collection and Bioanalysis. Blood samples (approximately 60 μL) were collected under light isoflurane anesthesia (Surgivet®) from the retro orbital plexus at 0.08, 0.25, 0.5, 1, 2, 4, 8, and 24 h (4 animals per time point). Immediately after blood collection, plasma was harvested by centrifugation at 4,000 rpm for 10 min at 4° C. and samples were stored at −70±10° C. until bioanalysis. Following blood collection, animals were immediately sacrificed, the abdominal vena-cava was cut open, and the whole body was perfused from the heart using 10 mL of normal saline, and brain samples were collected from all animals. After isolation, brain samples were rinsed three times in ice-cold normal saline (for 5-10 seconds/rinse using ˜5-10 mL normal saline in disposable petri dish for each rinse) and dried on blotting paper. Brain samples were homogenized using ice-cold phosphate-buffered saline (pH 7.4). Total homogenate volume was three times the tissue weight. All homogenates were stored at −70±10° C. until bioanalysis. For bioanalysis, 25 μL aliquots of plasma/brain study samples or spiked plasma/brain calibration standards were added to individual pre-labeled micro-centrifuge tubes followed by 100 μL of an internal standard solution (glipizide, 500 ng/mL in acetonitrile) except for blanks, where 100 μL of acetonitrile was added. Samples were vortexed for 5 minutes and then centrifuged for 10 minutes at 4,000 rpm at 4° C. Following centrifugation, 100 μL of each clear supernatant was transferred to a 96 well plate and analyzed with a fit-for-purpose LC-MS/MS method, with authentic samples of each analyte used for calibration and identification.
Data Analysis. Pharmacokinetic parameters were estimated using the non-compartmental analysis tool of Phoenix® WinNonlin software (Ver 8.0).

[8] = target: recombinant human NMDA receptor (GRIN1/GRIN2B) (Homo sapiens (Human), UniProt Q05586+Q13224); experiment: Unblocking kinetics at the NMDA receptor in Xenopus laevis oocytes (two-electrode voltage clamp); format: cell-based; conditions: compounds applied at 3×IC50, -70 mV, n ≥ 5
Sequence of recombinant human NMDA receptor (GRIN1/GRIN2B) (Q13224 whole entry, looked up, other chains not shown): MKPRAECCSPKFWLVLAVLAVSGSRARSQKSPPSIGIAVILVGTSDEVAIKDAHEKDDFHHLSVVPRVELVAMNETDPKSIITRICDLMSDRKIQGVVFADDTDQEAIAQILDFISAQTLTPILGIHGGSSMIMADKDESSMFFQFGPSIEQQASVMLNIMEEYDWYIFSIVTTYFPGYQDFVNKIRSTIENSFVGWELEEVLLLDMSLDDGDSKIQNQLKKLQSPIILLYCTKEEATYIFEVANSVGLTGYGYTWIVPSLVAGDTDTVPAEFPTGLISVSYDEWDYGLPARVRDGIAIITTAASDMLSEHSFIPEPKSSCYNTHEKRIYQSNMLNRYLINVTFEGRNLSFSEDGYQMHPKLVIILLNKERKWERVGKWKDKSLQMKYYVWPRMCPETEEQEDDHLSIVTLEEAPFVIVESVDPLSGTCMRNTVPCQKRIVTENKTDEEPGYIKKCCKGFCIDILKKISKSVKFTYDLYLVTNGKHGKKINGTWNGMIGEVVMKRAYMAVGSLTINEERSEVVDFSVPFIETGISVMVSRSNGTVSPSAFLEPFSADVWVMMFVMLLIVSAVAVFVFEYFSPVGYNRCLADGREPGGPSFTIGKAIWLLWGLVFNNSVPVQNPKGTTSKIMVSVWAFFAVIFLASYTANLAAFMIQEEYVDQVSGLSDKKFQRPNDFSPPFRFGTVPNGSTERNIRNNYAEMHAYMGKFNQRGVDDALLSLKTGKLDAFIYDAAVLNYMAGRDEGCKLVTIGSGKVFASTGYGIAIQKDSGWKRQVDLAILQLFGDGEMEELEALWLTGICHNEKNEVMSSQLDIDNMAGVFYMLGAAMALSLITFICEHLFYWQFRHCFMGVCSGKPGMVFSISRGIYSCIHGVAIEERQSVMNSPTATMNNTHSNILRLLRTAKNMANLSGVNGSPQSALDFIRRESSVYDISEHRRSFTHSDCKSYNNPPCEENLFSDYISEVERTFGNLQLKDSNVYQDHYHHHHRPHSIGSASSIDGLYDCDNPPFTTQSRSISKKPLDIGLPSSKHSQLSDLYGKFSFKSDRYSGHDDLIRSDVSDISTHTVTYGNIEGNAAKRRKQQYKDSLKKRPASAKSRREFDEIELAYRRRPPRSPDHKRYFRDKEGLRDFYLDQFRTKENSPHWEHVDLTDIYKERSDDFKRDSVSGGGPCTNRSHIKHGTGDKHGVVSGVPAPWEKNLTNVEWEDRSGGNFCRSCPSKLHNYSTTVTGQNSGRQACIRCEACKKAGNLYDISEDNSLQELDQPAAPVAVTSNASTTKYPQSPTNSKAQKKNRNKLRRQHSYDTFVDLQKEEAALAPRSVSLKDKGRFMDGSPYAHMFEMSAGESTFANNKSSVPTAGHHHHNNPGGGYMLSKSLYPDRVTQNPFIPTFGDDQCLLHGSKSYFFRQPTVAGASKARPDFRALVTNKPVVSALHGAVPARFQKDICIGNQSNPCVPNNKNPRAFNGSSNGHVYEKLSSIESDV
Protocol: Compounds 2R, 2S, and 2-(2-fluorophenyl)-2-(methylamino)cyclohexan-1-one 2-F-DCK were tested for unblocking kinetics at the NMDA receptor in Xenopus laevis oocytes expressing recombinant human NMDA receptor (GRIN1/GRIN2B) (Table 22).
Experimental Procedure. Oocytes were harvested from adult Xenopus laevis and incubated in 96 well plates for two to four days prior to recordings. Plasmids containing cDNA encoding for human NMDA receptor subunits GRIN1 and GRIN2B were transcribed using the mMessage mMachine T7 transcription kit (Ambion, USA). The Roboocyte automated injection system was used for injection of cRNA coding for hNMDA receptor subunits at a concentration of 100 ng/μL per subunit. Oocytes were clamped to a holding potential of −70 mV and induced currents after compound application were sampled at 200 Hz at room temperature. Agonist induced currents were recorded with a two-electrode voltage clamp. To determine the unblocking kinetics, glutamate and glycine (3 and 10 μM, respectively) were applied to the oocytes and the current recorded for 90 s. Then, compounds were applied at 3×IC50 for 120 s and the currents recorded.

Question: Which microsomal CLint at 1 μM [1] does the source give for `CNC1(c2ccccc2F)CCCCC1=O` (stereo not shown) [Compound 2-F-DCK, 2-(2-fluorophenyl)-2-(methylamino)cyclohexan-1-one, reference compound] here?
Answer: 30 µL/min/mg

Question: What about the Ki [2] of the same compound?
Answer: 40 µM

Question: What about the microsomal CLint at 1 μM [3] of the same compound?
Answer: 111 µL/min/mg

Question: And the microsomal CLint at 1 μM [4]?
Answer: 10.9 µL/min/mg

Question: And the microsomal CLint at 1 μM [5]?
Answer: 56.2 µL/min/mg

Question: And the microsomal CLint at 1 μM [6]?
Answer: 212 µL/min/mg

Question: And the Cmax ([7]; male, C57BL/6, mouse brain)?
Answer: 1670 ng/g

Question: What about the half-life ([7]; male, C57BL/6, mouse brain) of the same compound?
Answer: 41 min

Question: And the Cmax ([7]; male, C57BL/6, mouse plasma)?
Answer: 1960 ng/mL

Question: And the AUC(0-t) ([7]; male, C57BL/6, mouse plasma, read-out: AUC0-last (po) (converted))?
Answer: 1150 ng·h/mL

Question: What about the half-life ([7]; male, C57BL/6, mouse plasma) of the same compound?
Answer: 69 min

Question: What about the “AUC0-last (po)” value ([7]; mouse brain) of the same compound?
Answer: 59119 ng·min/g

Question: And the “Unblocking T1/2 ± SEM” value [8]?
Answer: 1.44 ± 0.21 min
